Values after ≈ are worked out from the molar mass of the structure shown. Values joined by “and” are separate entries in the source; they are usually repeats but may differ in a detail not shown here. Identical values can stand only once. Like-named read-outs stand apart in the source and are kept apart here.
Assays:
[1] = Study 2: concentrations of methadone in rat plasma, topical administration versus intravenous injection; format: in vivo
Procedure: The test article was administered intravenously (IV) through the tail vein to animals in Group A. The injection was performed slowly. A gauze pad (1×1 cm) Saturated with 0.2 mL of the appropriate test article was applied to the clipped site on the back of the animals in Groups 2 and 3. The gauze pad was secured by occlusive tape. The animal was wrapped in gauze, which was held in place with Zonas porous tape.
Blood Collection: Blood (0.5 mL) was collected into sodium heparin tubes at the appropriate time points. The samples were centrifuged at approximately 2800 rpm at 2-8 degrees Celsius for approximately 15 minutes. Plasma was collected.

[2] = Solubility of methadone in different solvents; format: physicochemical
Procedure: In this experiment, the solubility of methadone in a number of different solvents was evaluated. The solvents evaluated were mineral oil, N-methyl-2-pyrrolidone, diisopropyl adipate, DEET, PEG, Di (propylene glycol), dehydrated alcohol and water. […] The stability of the solutions was also evaluated.

[3] = Pharmacokinetic study B: methadone patch, human plasma; format: in vivo; conditions: topical, Study B: 5 × 5 cm SIS patch (Methadone 10 weight %), 25 mg Methadone free base, applied 12 hours, left leg inner side above knee, 55 kg person, read-out: Concentrations of Methadone in Human Plasma Samples
[4] = Pharmacokinetic study A: topical Methadone-DEET solution, human plasma; conditions: 10% solution in DEET, one-day application to the skin

For CCC(=O)C(CC(C)N(C)C)(c1ccccc1)c1ccccc1 (stereo not drawn) [Methadone, 6-dimethylamino-4,4-diphenyl-3-hepatone], the “Concentrations of Methadone in Rat Plasma Samples” value (from here on “Concentrations of Methadone”) ([1]; Study 2 Group C: topical dorsal flank, 1 × 1 cm gauze pad with 0.2 mL Test Article 3 (Methadone-DEET Solution 10%), 1440 min, individual rats C1-C3) was 20.0 ng/mL and 20.6 ng/mL, the “Concentrations of Methadone” value ([1]; Study 2 Group C: topical dorsal flank, 1 × 1 cm gauze pad with 0.2 mL Test Article 3 (Methadone-DEET Solution 10%), 2160 min, individual rats C1-C3) was 17.3 ng/mL and 35.1 ng/mL and 19.0 ng/mL and the “Concentrations of Methadone” value ([1]; Study 2 Group C: topical dorsal flank, 1 × 1 cm gauze pad with 0.2 mL Test Article 3 (Methadone-DEET Solution 10%), 2880 min, individual rats C1-C3) was 11.1 ng/mL and 23.7 ng/mL and 12.6 ng/mL. The concentration at 45 min ([1]; rat, in vivo, 0.2 mL of 10% methadone solution, Study 2 Group C: topical dorsal flank, 1 × 1 cm gauze pad with 0.2 mL Test Article 3 (Methadone-DEET Solution 10%), 45 min, individual rats C1-C3, read-out: Concentrations of Methadone in Rat Plasma Samples) was 2.08 ng/mL, the concentration at 90 min ([1]; rat, in vivo, 0.2 mL of 10% methadone solution, Study 2 Group C: topical dorsal flank, 1 × 1 cm gauze pad with 0.2 mL Test Article 3 (Methadone-DEET Solution 10%), individual rats C1-C3, read-out: Concentrations of Methadone in Rat Plasma Samples) was 3.17 ng/mL and the concentration at 1440 min ([1]; rat, in vivo, 0.2 mL of 10% methadone solution, Study 2 Group C: topical dorsal flank, 1 × 1 cm gauze pad with 0.2 mL Test Article 3 (Methadone-DEET Solution 10%), 1440 min, individual rats C1-C3, read-out: Concentrations of Methadone in Rat Plasma Samples) was 27.8 ng/mL. For the same molecule, the concentration at 15 min ([1]; rat, in vivo, 0.2 mL of 23.9% methadone solution, Study 2 Group B: topical dorsal flank, 1 × 1 cm gauze pad with 0.2 mL Test Article 2 (Methadone-Diisopropyl Adipate Solution 23.9%), 15 min, individual rats B1-B3, read-out: Concentrations of Methadone in Rat Plasma Samples) was 2.75 ng/mL, the concentration at 90 min ([1]; rat, in vivo, 0.2 mL of 23.9% methadone solution, Study 2 Group B: topical dorsal flank, 1 × 1 cm gauze pad with 0.2 mL Test Article 2 (Methadone-Diisopropyl Adipate Solution 23.9%), individual rats B1-B3, read-out: Concentrations of Methadone in Rat Plasma Samples) was 24.8 ng/mL and the concentration at 1440 min ([1]; rat, in vivo, 0.2 mL of 23.9% methadone solution, Study 2 Group B: topical dorsal flank, 1 × 1 cm gauze pad with 0.2 mL Test Article 2 (Methadone-Diisopropyl Adipate Solution 23.9%), 1440 min, individual rats B1-B3, read-out: Concentrations of Methadone in Rat Plasma Samples) was 116 ng/mL. The concentration at 2 min ([1]; rat, in vivo, iv, 0.125 mg, Study 2 Group A: I.V. tail vein, 0.25 mL Test Article 1 (0.5 mg/mL Methadone-Saline Solution), 2 min, individual rats A1-A3, read-out: Concentrations of Methadone in Rat Plasma Samples) was 36.3 ng/mL, the concentration at 20 min ([1]; rat, in vivo, iv, 0.125 mg, Study 2 Group A: I.V. tail vein, 0.25 mL Test Article 1 (0.5 mg/mL Methadone-Saline Solution), 20 min, individual rats A1-A3, read-out: Concentrations of Methadone in Rat Plasma Samples) was 55.9 ng/mL and the concentration at 40 min ([1]; rat, in vivo, iv, 0.125 mg, Study 2 Group A: I.V. tail vein, 0.25 mL Test Article 1 (0.5 mg/mL Methadone-Saline Solution), 40 min, individual rats A1-A3, read-out: Concentrations of Methadone in Rat Plasma Samples) was 35.4 ng/mL. For the same molecule, the concentration at 60 min ([1]; rat, in vivo, iv, 0.125 mg, Study 2 Group A: I.V. tail vein, 0.25 mL Test Article 1 (0.5 mg/mL Methadone-Saline Solution), 60 min, individual rats A1-A3, read-out: Concentrations of Methadone in Rat Plasma Samples) was 28.1 ng/mL, the concentration at 480 min ([1]; rat, in vivo, iv, 0.125 mg, Study 2 Group A: I.V. tail vein, 0.25 mL Test Article 1 (0.5 mg/mL Methadone-Saline Solution), 480 min, individual rats A1-A3, read-out: Concentrations of Methadone in Rat Plasma Samples) was 1.54 ng/mL and the concentration at 2160 min ([1]; rat, in vivo, iv, 0.125 mg, Study 2 Group A: I.V. tail vein, 0.25 mL Test Article 1 (0.5 mg/mL Methadone-Saline Solution), 2160 min, individual rats A1-A3, read-out: Concentrations of Methadone in Rat Plasma Samples) was 0.796 ng/mL. It also gave a solubility at 3 h ([2]; oil or lipid, Mineral oil, 3 hour) of 39.9 mg/mL (≈ 129 mM), a solubility at 6 h ([2]; oil or lipid, Mineral oil, 6 hour) of 37.2 mg/mL (≈ 120 mM) and a solubility at 24 h ([2]; oil or lipid, Mineral oil, 24 hour) of 40.4 mg/mL (≈ 131 mM). The solubility at 48 h ([2]; oil or lipid, Mineral oil, 48 hour) was 40.4 mg/mL (≈ 131 mM), the solubility at 3 h ([2]; organic solvent or mixture, thermodynamic from solid, diisopropyl adipate, 3 hour) was 343 mg/mL (≈ 1110 mM) and the solubility at 6 h ([2]; organic solvent or mixture, thermodynamic from solid, diisopropyl adipate, 6 hour) was 345 mg/mL (≈ 1110 mM). For the same molecule, the solubility at 48 h ([2]; organic solvent or mixture, thermodynamic from solid, diisopropyl adipate, 48 hour) was 324 mg/mL (≈ 1050 mM), the solubility at 3 h ([2]; organic solvent or mixture, DEET (97%), 3 hour) was 124 mg/mL (≈ 401 mM) and the solubility at 6 h ([2]; organic solvent or mixture, DEET (97%), 6 hour) was 125 mg/mL (≈ 404 mM). For the same molecule, the solubility at 24 h ([2]; organic solvent or mixture, DEET (97%), 24 hour) was 137 mg/mL (≈ 443 mM), the solubility at 48 h ([2]; organic solvent or mixture, DEET (97%), 48 hour) was 132 mg/mL (≈ 427 mM) and the solubility at 3 h ([2]; organic solvent or mixture, Dehydrated Alcohol, 3 hour) was 114 mg/mL (≈ 368 mM). For the same molecule, the solubility at 6 h ([2]; organic solvent or mixture, Dehydrated Alcohol, 6 hour) was 113 mg/mL (≈ 365 mM), the solubility at 24 h ([2]; organic solvent or mixture, Dehydrated Alcohol, 24 hour) was 115 mg/mL (≈ 372 mM) and the solubility at 48 h ([2]; organic solvent or mixture, Dehydrated Alcohol, 48 hour) was 118 mg/mL (≈ 381 mM). The solubility at 3 h ([2]; organic solvent or mixture, Di(propylene glycol), 3 hour) was 56.2 mg/mL (≈ 182 mM), the solubility at 6 h ([2]; organic solvent or mixture, Di(propylene glycol), 6 hour) was 56.5 mg/mL (≈ 183 mM) and the solubility at 24 h ([2]; organic solvent or mixture, Di(propylene glycol), 24 hour) was 54.9 mg/mL (≈ 177 mM). The solubility at 48 h ([2]; organic solvent or mixture, Di(propylene glycol), 48 hour) was 58.7 mg/mL (≈ 190 mM), the solubility at 3 h ([2]; organic solvent or mixture, N-methyl-2-pyrrolidone, 3 hour) was 262 mg/mL (≈ 847 mM) and the solubility at 6 h ([2]; organic solvent or mixture, N-methyl-2-pyrrolidone, 6 hour) was 270 mg/mL (≈ 873 mM). For the same molecule, the solubility at 24 h ([2]; organic solvent or mixture, N-methyl-2-pyrrolidone, 24 hour) was 347 mg/mL (≈ 1120 mM), the solubility at 48 h ([2]; organic solvent or mixture, N-methyl-2-pyrrolidone, 48 hour) was 342 mg/mL (≈ 1110 mM) and the solubility at 3 h ([2]; organic solvent or mixture, PEG - 400, 3 hour) was 39.7 mg/mL (≈ 128 mM). The solubility at 6 h ([2]; organic solvent or mixture, PEG - 400, 6 hour) was 39.9 mg/mL (≈ 129 mM), the solubility at 24 h ([2]; organic solvent or mixture, PEG - 400, 24 hour) was 38.8 mg/mL (≈ 125 mM) and the solubility at 48 h ([2]; organic solvent or mixture, PEG - 400, 48 hour) was 36.8 mg/mL (≈ 119 mM). The solubility at 24 h ([2]; organic solvent or mixture, diisopropyl adipate, 24 hour) was 360 mg/mL (≈ 1160 mM), the solubility at 3 h ([2]; thermodynamic from solid, water, 3 hour) was 0.217 mg/mL (≈ 0.701 mM) and the solubility at 6 h ([2]; thermodynamic from solid, water, 6 hour) was 0.228 mg/mL (≈ 0.737 mM). It also gave a solubility at 24 h ([2]; thermodynamic from solid, water, 24 hour) of 0.224 mg/mL (≈ 0.724 mM), a solubility at 48 h ([2]; thermodynamic from solid, water, 48 hour) of 0.225 mg/mL (≈ 0.727 mM) and a concentration at 12 h ([3]; 12 hr) of 5.36 ng/mL. The concentration at 18 h ([3]; 18 hr) was 4.95 ng/mL, the concentration at 139.5 h ([3]; 139.5 hr) was 2.24 ng/mL and the “Irritation of human skin by topical methadone composition” value [4] was “lack of irritation”.

— US20050244486A1, “Topical methadone compositions and methods for using the same” (priority 2004, published 2005)
